Here are results for one compound from US20120202885A1, “METHODS, ASSAYS AND COMPOSITIONS FOR TREATING RETINOL-RELATED DISEASES” (ReVision Therapeutics, Inc., priority 2004, published 2012).

One data set concerns abca4 null mutant mouse. The data set can be described thus: 14-day HPR dose response on serum retinol (LC/MS of serum extract). Type of data set: in vivo, mice. The following applies: DMSO, 10 or 20 mg/kg HPR, 14 days. On the procedure: (§1) Initial studies began by examining the effect of HPR on serum retinol. Animals were divided into three groups and given either DMSO, 10 mg/kg HPR, or 20 mg/kg HPR for 14 days. At the end of the study period, blood was collected from the animals, sera were prepared and an acetonitrile extract of the serum was analyzed by reverse phase LC/MS. UV-visible spectral and mass/charge analyses were performed to confirm the identity of the eluted peaks. Sample chromatograms obtained from these analyses are shown: FIG. 7a.—extract from an abca4 null mutant mouse receiving HPR vehicle, DMSO; FIG. 7b.—10 mg/kg HPR; FIG. 7c.—20 mg/kg HPR. […] For 20 mg/kg HPR, serum retinol is decreased 72%, see FIG. 8. The steady state concentrations of retinol and HPR in serum (at 20 mg/kg HPR) were determined to be 2.11 μM and 1.75 μM, respectively.

Experiment in data set [1]: as above
Type of data set: in vivo, mice. The following applies: abca4 null mutant, mouse, serum, intraperitoneal; 20 mg/kg HPR; read-out: steady state concentration of HPR in serum. The protocol: as §1

Data set [2] has as its target Retinol Binding Protein (RBP) (Homo sapiens, UniProt P02753). Nature of the data set: Fluorescence quenching study of MPR binding to retinol binding protein. The following applies: 1 μM ligand, 0.5 μM Apo-RBP. The protocol: Apo-RBP at 0.5 μM was incubated with 0, 0.25, 0.5, 1 and 2 μM of MPR in PBS at room temperature for 1 hour, respectively. As controls, the same concentration of Apo-RBP was also incubated with 1 μM of HPR or 1 μM of atROL. All mixtures contained 0.2% Ethanol (v/v). The emission spectra were measured between 290 nm to 550 nm with excitation wavelength at 280 nm and 3 nm bandpass.

Data set [3] concerns the target interaction of TTR with RBP (Homo sapiens, UniProt P02753). Particulars: Malpeli et al., Holven et al.; cited from earlier work.
A further data set concerns the target retinol-RBP-TTR complex (Homo sapiens, UniProt P02753). The data set can be described thus: High-throughput FRET assay for RBP/TTR interaction. Type of data set: binding. The text has this:
Reduction of serum retinol and RBP are correlated with concomitant reductions in toxic lipofuscin fluorophores. Because compounds that affect RBP-TTR interaction will directly affect fluorophore levels in the eye, a high-throughput screen for small molecules which prevent interaction of RBP with TTR was developed. This screen employs probe-labeled forms of RBP and TTR which participate in a unique fluorescence resonance energy transfer (FRET) event when complexed. Compounds which interfere with RBP-TTR interaction prevent FRET. Sample spectra taken during the course of this type of assay are shown, in FIG. 4. […] The sample is incubated at 37° C. for 30 min and then illuminated with 330 nm light. The emission spectra are shown in the range of 400-600 nm. HPR binds to RBP and prevents interaction with TTR, and here this property of HPR is utilized here to validate the ability of this screen to detect inhibition of RBP-TTR interaction. […] Additionally, the design of this assay permits discrimination between compounds which interact with RBP versus those which interact with TTR. Thus, by using two distinct excitation energies (280 nm and 330 nm, for protein and retinol, respectively) and implementing simultaneous monitoring of the retinol and TTR-probe fluorescence, the “target” of a presumptive small molecule can be easily determined.
Accordingly, HPR was employed at varied concentrations (from 0-4 μM), using the conditions specified in Example 7, to evaluate the high throughput assay.
The mechanism of action underlying this effect can be explained by the disruption of RBP-TTR interactions. In order to explore this possibility and to further validate the RBP-TTR screen, the effects of all-trans retinoic and 13-cis retinoic acid, using the conditions the conditions specified for analysis of HPR, were examined.

Structures are written as SMILES.

On to `CC1=C(/C=C/C(C)=C/C=C/C(C)=C/C(=O)Nc2ccc(O)cc2)C(C)(C)CCC1` [HPR, N-(4-hydroxyphenyl)retinamide], for which the “serum retinol, dose dependence” value with abca4 null mutant mouse was “dose-dependent reduction in serum retinol”. Further, the concentration at 14 days in data set [1] came to 1750 nM. Moreover, in data set [2], the “binding to RBP” value is reported as “bind to RBP”. In addition, the “interaction of TTR with RBP” value in data set [3] was “interferes with the normal interaction of TTR with RBP”. For the same compound, the “retinol and TTR-probe fluorescence (loss of RBP-TTR complexation)” value on retinol-RBP-TTR complex (HPR 1 μM, 0.5 μM RBP + 0.5 μM Alexa430-TTR, 37° C. 30 min, 330 nm excitation) is “significantly reduced retinol and TTR-probe fluorescence”. The “inhibition of retinol-RBP-TTR complex formation” value on retinol-RBP-TTR complex (varied concentrations 0-4 μM, FIG. 5) is on record as “dose dependent inhibition”.
